The text below walks through data of patent US12649751B2 (Arcus Biosciences, Inc., priority 2022, dated 2026).

SMILES strings stand for the structures. Where two headings read alike, the source gives them in different places.

One experiment deals with HPK1 (Homo sapiens, UniProt Q92918). Briefly: HPK1 Biochemical Assay (ADP-Glo luminescence; low ATP 10 μM or high ATP 200 μM). As to conditions: HPK1 ADP-Glo assay.
Experiment [1] concerns p-SLP-76 (Ser376) in Jurkat cells. Briefly: pSLP76 Cellular Assay (AlphaLISA SureFire Ultra p-SLP-76 (Ser376), anti-CD3 activated Jurkat cells). The class given is cell-based. As to conditions: Homo sapiens; pSLP76 (Ser376) AlphaLISA, anti-CD3 activated Jurkat cells; read-out: Cellular Potency. Put shortly: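 Jurkat cells, serum-starved overnight in Opti-MEM then in HBSS, preincubated 1 h at 37 °C with 22-point 2-fold compound dilutions, then stimulated with anti-CD3 (0.025 mg/ml added solution) for 45 min. Lysate p-SLP-76 (Ser376) measured by AlphaLISA at 570 nm; IC50 from 4-parameter logistic fit.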
In general terms: In Alpha technology, singlet oxygen from a donor bead excites a nearby acceptor bead.

Where [2] appears, read: high ATP (200 μM ATP, 5 nM HPK1), read-out: Biochemical Potency (high ATP).
[3] abbreviates: low ATP (10 μM ATP, 2 nM HPK1), read-out: Biochemical Potency (low ATP).

Chain of HPK1 (Q92918 whole entry, species assumed): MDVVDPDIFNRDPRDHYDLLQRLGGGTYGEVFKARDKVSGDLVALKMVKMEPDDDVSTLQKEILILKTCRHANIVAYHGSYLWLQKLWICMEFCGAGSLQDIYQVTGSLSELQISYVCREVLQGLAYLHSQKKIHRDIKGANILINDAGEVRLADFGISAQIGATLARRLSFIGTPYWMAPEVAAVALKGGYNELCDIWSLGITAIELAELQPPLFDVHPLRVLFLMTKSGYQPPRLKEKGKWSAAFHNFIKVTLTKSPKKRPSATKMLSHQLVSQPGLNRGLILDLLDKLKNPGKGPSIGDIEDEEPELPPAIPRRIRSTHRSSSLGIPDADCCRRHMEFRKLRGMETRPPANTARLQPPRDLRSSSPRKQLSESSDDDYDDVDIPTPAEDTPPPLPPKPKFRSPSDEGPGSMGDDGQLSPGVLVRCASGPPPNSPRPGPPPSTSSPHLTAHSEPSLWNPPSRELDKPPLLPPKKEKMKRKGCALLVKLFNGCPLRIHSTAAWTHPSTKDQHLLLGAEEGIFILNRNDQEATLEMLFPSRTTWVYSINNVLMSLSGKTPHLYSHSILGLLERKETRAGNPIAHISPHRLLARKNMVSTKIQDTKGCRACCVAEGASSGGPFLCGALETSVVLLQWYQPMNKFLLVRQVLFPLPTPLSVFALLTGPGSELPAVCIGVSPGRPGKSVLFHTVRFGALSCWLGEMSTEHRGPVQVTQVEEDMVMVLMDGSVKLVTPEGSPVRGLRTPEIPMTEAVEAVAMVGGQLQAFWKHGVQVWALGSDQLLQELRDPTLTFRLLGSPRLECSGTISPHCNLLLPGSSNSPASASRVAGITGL

For the compound `CCN1C[C@@H]2C[C@H]1CN2c1nc(C)cc(Nc2cc3nc(O[C@H](C)c4c(Cl)ccc(F)c4Cl)sc3cn2)n1` [Example 485], the IC50 was less than 100 nM at HPK1 (setting [2]) and 100 to 1000 nM in experiment [1].

In the case of `Fc1cccc(F)c1-c1nc2cc(Nc3cc4c(cn3)CCNC4)ncc2s1` [Example 486], the IC50 is 100 to 1000 nM at HPK1 (setting [3]) and 5000 to 25000 nM in experiment [1].

As to `Cc1cc(Nc2cc3nc(-c4cccc(C(=O)N(C)C)c4)sc3cn2)nc(N2C[C@@H]3C[C@H]2CN3[C@H]2CCOC2)n1` [Example 487], the IC50 (at HPK1 (setting [2]); in experiment [1]) was less than 100 nM in each case.

Regarding `Cc1cc(Nc2cc3nc(-c4cccc(C(=O)N(C)C)c4)sc3cn2)nc(N2C[C@@H]3C[C@H]2CN3C[C@@H]2CCOC2)n1` [Example 488], the IC50 at HPK1 (setting [2]) is less than 100 nM; in experiment [1], 100 to 1000 nM.

`CCOCCN1C[C@@H]2C[C@H]1CN2c1nc(C)cc(Nc2cc3nc(-c4cccc(C(=O)N(C)C)c4)sc3cn2)n1` [Example 489]: the figures for the IC50 (at HPK1 (setting [2]); in experiment [1]) were less than 100 nM and 100 to 1000 nM, respectively.

As for `Cc1cc(Nc2cc3nc(-c4cccnc4)sc3cn2)nc(N2C[C@@H]3C[C@H]2CN3Cc2ccccc2)n1` [Example 490], the values for the IC50 (on HPK1 (setting [2]); in experiment [1]) were less than 100 nM and 100 to 1000 nM, respectively.

Turning to `Cc1cc(Nc2cc3nc(-c4cccc(C(=O)N(C)C)c4)sc3cn2)nc(N2C[C@@H]3C[C@H]2CN3CCOC(C)C)n1` [Example 492], the values for the IC50 (on HPK1 (setting [2]); in experiment [1]) were less than 100 nM and 100 to 1000 nM, respectively.

For `Cc1cc(Nc2cc3nc(-c4cccc(C(=O)N(C)C)c4)sc3cn2)nc(N2C[C@@H]3C[C@H]2CN3Cc2ccccn2)n1` [Example 493], the values for the IC50 (on HPK1 (setting [2]); in experiment [1]) were less than 100 nM and 100 to 1000 nM, respectively.

Regarding `Cc1cc(Nc2cc3nc(-c4cccc(C(=O)N(C)C)c4)sc3cn2)nc(N2C[C@@H]3C[C@H]2CN3Cc2cnn(C)c2)n1` [Example 494], the IC50 on HPK1 (setting [2]) is less than 100 nM; in experiment [1], 100 to 1000 nM.

Consider `CC(=O)N(C)CCN1C[C@@H]2C[C@H]1CN2c1nc(C)cc(Nc2cc3nc(-c4cccc(C(=O)N(C)C)c4)sc3cn2)n1` [Example 495], for which the IC50 was less than 100 nM on HPK1 (setting [2]) and 100 to 1000 nM in experiment [1].

As to `Cc1cc(Nc2cc3nc(-c4cccc(C(=O)N(C)C)c4)sc3cn2)nc(N2C[C@@H]3C[C@H]2CN3Cc2ccccc2)n1` [Example 496], the IC50 (at HPK1 (setting [2]); in experiment [1]) was less than 100 nM each time.

Regarding `Cc1cc(Nc2cc3nc(-c4cccc(C(=O)N(C)C)c4)sc3cn2)nc(N2C[C@@H]3C[C@H]2CN3Cc2cccnc2)n1` [Example 497], the IC50 is less than 100 nM on HPK1 (setting [2]) and 100 to 1000 nM in experiment [1].

With `Cc1cc(Nc2cc3nc(-c4cccc(C(=O)N(C)C)c4)sc3cn2)nc(N2C[C@@H]3C[C@H]2CN3CCN(C)S(C)(=O)=O)n1` [Example 498], the IC50 at HPK1 (setting [2]) lay within 100 to 1000 nM; in experiment [1], 1000 to 5000 nM.

Take `Cc1cc(Nc2cc3nc(-c4cnn(C)c4)sc3cn2)nc(N2C[C@@H]3C[C@H]2CN3C[C@@H](C)O)n1` [Example 499]: the IC50 (at HPK1 (setting [2]); in experiment [1]) was less than 100 nM each time.

Take `Cc1cc(Nc2cc3nc(-c4cccc(S(=O)(=O)C5CC5)c4)sc3cn2)nc(N2C[C@@H]3C[C@H]2CN3CCO)n1` [Example 500]: the IC50 (at HPK1 (setting [2]); in experiment [1]) was less than 100 nM in each case.

Turning to `Cc1cc(Nc2cc3nc(-c4cccc(S(=O)(=O)CC5CC5)c4)sc3cn2)nc(N2C[C@@H]3C[C@H]2CN3CCO)n1` [Example 501], the IC50 (at HPK1 (setting [2]); in experiment [1]) was less than 100 nM in each case.

With `Cc1cc(Nc2cc3nc(-c4cccc(C(=O)N(C)C)c4)sc3cn2)nc(N2C[C@@H]3C[C@H]2CN3CCOCCO)n1` [Example 502], the IC50 on HPK1 (setting [2]) was less than 100 nM; in experiment [1], 100 to 1000 nM.

On to `Cc1cc(Nc2cc3nc(-c4cnn(CC5CC5)c4)sc3cn2)nc(N2C[C@@H]3C[C@H]2CN3CC(C)(C)O)n1` [Example 503], for which the IC50 on HPK1 (setting [2]) was less than 100 nM; in experiment [1], 100 to 1000 nM.

For the compound `CCN(CC)C(=O)c1cccc(-c2nc3cc(Nc4cc(C)nc(N5C[C@@H]6C[C@H]5CN6CCO)n4)ncc3s2)c1` [Example 504], the IC50 (on HPK1 (setting [2]); in experiment [1]) was less than 100 nM in each case.

Regarding `CCN(C)C(=O)c1cccc(-c2nc3cc(Nc4cc(C)nc(N5C[C@@H]6C[C@H]5CN6CCO)n4)ncc3s2)c1` [Example 505], the IC50 (at HPK1 (setting [2]); in experiment [1]) was less than 100 nM throughout.

Take `COCCN1C[C@@H]2C[C@H]1CN2c1nc(C)cc(Nc2cc3nc(-c4cccc(C(=O)N(C)C)c4)sc3cn2)n1` [Example 506]: the results for the IC50 (at HPK1 (setting [2]); in experiment [1]) were less than 100 nM and 100 to 1000 nM, respectively.

For the compound `Cc1cccnc1-c1nc2cc(Nc3cc(C4CCC(O)CC4)nc(N4C[C@@H]5C[C@H]4CN5C)n3)ncc2s1` (stereo partly shown) [Example 507], the IC50 on HPK1 (setting [2]) was less than 100 nM; in experiment [1], 100 to 1000 nM.

As for `c1cnn(-c2nc3cc(Nc4cnc(C5CCOCC5)c(N5C[C@@H]6C[C@H]5CN6)n4)ncc3s2)c1` [Example 508], the IC50 (at HPK1 (setting [2]); in experiment [1]) was less than 100 nM in each case.

Take `CC(C)(O)c1cccc(-c2nc3cc(Nc4cnc(C5CCOCC5)c(N5C[C@@H]6C[C@H]5CN6)n4)ncc3s2)c1` [Example 509]: the IC50 (at HPK1 (setting [2]); at HPK1 (setting [3]); in experiment [1]) was less than 100 nM throughout.

Turning to `Cc1cccnc1-c1nc2cc(Nc3cnc(C4CCOCC4)c(N4C[C@@H]5C[C@H]4CN5)n3)ncc2s1` [Example 510], the IC50 (on HPK1 (setting [2]); at HPK1 (setting [3]); in experiment [1]) was less than 100 nM in each case.

For `CCN1C[C@@H]2C[C@H]1CN2c1nc(C)cc(Nc2cc3nc(-c4cccc(C(=O)N5CCC[C@@H](C)C5)c4)sc3cn2)n1` [Example 511], the IC50 on HPK1 (setting [2]) is less than 100 nM; in experiment [1], 100 to 1000 nM.

In the case of `CCN1C[C@@H]2C[C@H]1CN2c1nc(C)cc(Nc2cc3nc(-c4cccc(C(=O)N5CCC[C@H](C)C5)c4)sc3cn2)n1` [Example 512], the IC50 (on HPK1 (setting [2]); in experiment [1]) was less than 100 nM in each case.

Take `CCN1C[C@@H]2C[C@H]1CN2c1nc(C)cc(Nc2cc3nc(-c4ccc(F)c(C(=O)NC5CCCC5)c4)sc3cn2)n1` [Example 513]: the IC50 (on HPK1 (setting [2]); in experiment [1]) was less than 100 nM each time.

As to `CCN1C[C@@H]2C[C@H]1CN2c1nc(C)cc(Nc2cc3nc(-c4ccnc(C(=O)NC5CCCC5)c4)sc3cn2)n1` [Example 514], the IC50 at HPK1 (setting [2]) was less than 100 nM; in experiment [1], 100 to 1000 nM.

Consider `CCN1C[C@@H]2C[C@H]1CN2c1nc(C)cc(Nc2cc3nc(-c4cccc(C(=O)NC5CCCC5)c4)sc3cn2)n1` [Example 515], for which the IC50 (on HPK1 (setting [2]); in experiment [1]) was less than 100 nM in each case.

For `CCN1C[C@@H]2C[C@H]1CN2c1nc(C)cc(Nc2cc3nc(-c4cccc(C(=O)N[C@H](C)c5ccccc5)c4)sc3cn2)n1` [Example 516], the IC50 was less than 100 nM on HPK1 (setting [2]) and 100 to 1000 nM in experiment [1].

Regarding `CCN1C[C@@H]2C[C@H]1CN2c1nc(C)cc(Nc2cc3nc(-c4cccc(C(=O)N5CCC(C)CC5)c4)sc3cn2)n1` [Example 517], the IC50 (at HPK1 (setting [2]); in experiment [1]) was less than 100 nM in each case.

Take `CCc1cc(C(=O)N(C)C)cc(-c2nc3cc(Nc4cc(C)nc(N5C[C@@H]6C[C@H]5CN6CC)n4)ncc3s2)c1` [Example 518]: the IC50 (at HPK1 (setting [2]); in experiment [1]) was less than 100 nM each time.

On to `CCN1C[C@@H]2C[C@H]1CN2c1nc(C)cc(Nc2cc3nc(-c4cc(Cl)cc(C(=O)N(C)C)c4)sc3cn2)n1` [Example 519], for which the results for the IC50 (on HPK1 (setting [2]); in experiment [1]) were less than 100 nM and 100 to 1000 nM, respectively.

Regarding `CCN1C[C@@H]2C[C@H]1CN2c1nc(C)cc(Nc2cc3nc(-c4cccc(C(=O)N5CCCC5(C)C)c4)sc3cn2)n1` [Example 520], the IC50 (on HPK1 (setting [2]); in experiment [1]) was less than 100 nM throughout.

Turning to `CCN1C[C@@H]2C[C@H]1CN2c1nc(C)cc(Nc2cc3nc(-c4cccc(C(=O)N5CCC(C)(C)C5)c4)sc3cn2)n1` [Example 521], the values for the IC50 (at HPK1 (setting [2]); in experiment [1]) were less than 100 nM and 100 to 1000 nM, respectively.

Consider `CCN1C[C@@H]2C[C@H]1CN2c1nc(C)cc(Nc2cc3nc(-c4cccc(C(=O)Nc5ccccc5)c4)sc3cn2)n1` [Example 522], for which the results for the IC50 (on HPK1 (setting [2]); in experiment [1]) were less than 100 nM and 100 to 1000 nM, respectively.

Turning to `CCN1C[C@@H]2C[C@H]1CN2c1nc(C)cc(Nc2cc3nc(-c4cccc(C(=O)N(C)CC5CCOCC5)c4)sc3cn2)n1` [Example 523], the IC50 at HPK1 (setting [2]) was less than 100 nM; in experiment [1] it was 100 to 1000 nM.

For `CCN1C[C@@H]2C[C@H]1CN2c1nc(C)cc(Nc2cc3nc(-c4cccc(C(=O)N[C@H](C)C5CC5)c4)sc3cn2)n1` [Example 524], the IC50 (at HPK1 (setting [2]); in experiment [1]) was less than 100 nM throughout.

Turning to `CCN1C[C@@H]2C[C@H]1CN2c1nc(C)cc(Nc2cc3nc(-c4cccc(C(=O)N[C@@H](C)C5CC5)c4)sc3cn2)n1` [Example 525], the IC50 (at HPK1 (setting [2]); in experiment [1]) was less than 100 nM in each case.

For `CCN1C[C@@H]2C[C@H]1CN2c1nc(C)cc(Nc2cc3nc(-c4cccc(C(=O)N5CCC[C@@H]5C)c4)sc3cn2)n1` [Example 526], the IC50 (at HPK1 (setting [2]); in experiment [1]) was less than 100 nM throughout.

`CCN1C[C@@H]2C[C@H]1CN2c1nc(C)cc(Nc2cc3nc(-c4cccc(C(=O)N5CCOC[C@H]5C)c4)sc3cn2)n1` [Example 527]: the IC50 is less than 100 nM at HPK1 (setting [2]) and 100 to 1000 nM in experiment [1].

With `CCN1C[C@@H]2C[C@H]1CN2c1nc(C)cc(Nc2cc3nc(-c4cccc(C(=O)N(C)C5CCOCC5)c4)sc3cn2)n1` [Example 528], the IC50 on HPK1 (setting [2]) is less than 100 nM; in experiment [1] it was 100 to 1000 nM.
